Experimental data taken from patent US12012417B2, “N-substituted tetrahydrothienopyridine derivatives and uses thereof” (NOVARTIS AG, priority 2018, dated 2024).
Structures can show the parent of a compound that is named as a salt.

Tests used:
[1] = tested on: Dengue 2 virus MY97-10340; experiment: High-content imaging cell-based flavivirus immunodetection (HCl-CFI) assay, Dengue 2; details: Dengue virus, A549, 48 h, read-out: Dengue 2 virus MY97-10340 in A549 using HCl [Inhibitor/IC50] Qualified AC50, A549 cells, MOI 0.3, 48 h, viral E protein expression
Method: High-Content Imaging Cell-Based Flavivirus Immunodetection (HCl-CFI) Assay
A549 cells (7×10^3 cells per well) in a 384-well plate were infected with the DENV-2 (MY97-10340) strain at an MOI of 0.3. The cells were then treated with 3-fold, 10-point serial dilutions of test compound. After 48 h, the cells were fixed with paraformadehyde, and the viral E protein detected with 4G2 antibody labeled with Dylight™ 488 (GenScript). Cell nuclei were stained with Draq5 (Pierce/Thermo), and images were taken on the Opera imaging system (Perkin Elmer). A dose-response curve was plotted to calculate the effective concentration of compound needed to reduce expression of E protein by 50% (EC50) using GraphPad Prism.
The resulted EC50 values are summarized in Table 1 below: ±≥1 μM; 1 μM>++≥0.1 μM; 0.1 μm>+++

[2] = tested on: Dengue 1 virus MY97-10245; experiment: High-content imaging cell-based flavivirus immunodetection (HCl-CFI) assay, Dengue 1; details: Dengue virus, A549, 48 h, read-out: Dengue 1 virus MY97-10245 in A549 using HCl [Inhibitor/IC50] Qualified AC50
[3] = tested on: Dengue 4 virus MY01-22713; experiment: High-content imaging cell-based flavivirus immunodetection (HCl-CFI) assay, Dengue 4; details: Dengue virus, A549, 48 h, read-out: Dengue 4 virus MY01-22713 in A549 using HCl [Inhibitor/IC50] Qualified AC50, A549 cells, 48 h, viral E protein expression
[4] = tested on: Dengue 3 virus MY05-34640-WT-C6/36; experiment: High-content imaging cell-based flavivirus immunodetection (HCl-CFI) assay, Dengue 3; details: Dengue virus, A549, 48 h, read-out: Dengue 3 virus MY05-34640-WT-C6/36 in A549 using HCl [Inhibitor/IC50] Qualified AC50

What does the source list for CCOc1cc(CC(=O)Nc2sc3c(c2C#N)CN(Cc2cccc(F)c2)CC3)ccc1S(N)(=O)=O [Example 21, N-(3-cyano-5-(3-fluorobenzyl)-4,5,6,7-tetrahydrothieno[3,2-c]pyridin-2-yl)-2-(3-ethoxy-4-sulfamoylphenyl)acetamide]?
EC50 [1]: < 100 nM; EC50 [2]: < 100 nM; EC50 [3]: < 100 nM; EC50 [4]: < 100 nM

Which EC50 [1] does the source give for CCOc1cc(CC(=O)Nc2sc3c(c2C#N)CN(CC2CC(F)(F)C2)C(C)(C)C3)ccc1S(N)(=O)=O [Example 78, N-(3-cyano-5-((3,3-difluorocyclobutyl)methyl)-6,6-dimethyl-4,5,6,7-tetrahydrothieno[3,2-c]pyridin-2-yl)-2-(3-ethoxy-4-sulfamoylphenyl)acetamide] here?
Its EC50 is < 100 nM.

What about the EC50 [2] of the same compound?
The EC50 was 100 to 1000 nM.

What about the EC50 [3] of the same compound?
The EC50 was < 100 nM.

And the EC50 [4]?
The EC50 was < 100 nM.

CCOc1cc(CC(=O)Nc2sc3c(c2C#N)CN(Cc2cccc(F)c2)CC3)ccc1S(C)(=O)=O [Example 37, N-(3-cyano-5-(3-fluorobenzyl)-4,5,6,7-tetrahydrothieno[3,2-c]pyridin-2-yl)-2-(3-ethoxy-4-(methylsulfonyl)phenyl)acetamide] was tested. Which EC50 [1] did it give?
Its EC50 is < 100 nM.

And the EC50 [2]?
The EC50 was 100 to 1000 nM.

And the EC50 [3]?
Its EC50 is < 100 nM.

And the EC50 [4]?
Its EC50 is < 100 nM.

CC(O)(c1ccc(CC(=O)Nc2sc3c(c2C#N)CN(CC2CCCCC2)CC3)cc1)C(F)(F)F (stereo not drawn) [Example 8, N-(3-cyano-5-(cyclohexylmethyl)-4,5,6,7-tetrahydrothieno[3,2-c]pyridin-2-yl)-2-(4-(1,1,1-trifluoro-2-hydroxypropan-2-yl)phenyl)acetamide] was tested. Which EC50 [1] did it give?
The EC50 was 100 to 1000 nM.

What about the EC50 [2] of the same compound?
Its EC50 is > 1000 nM.

And the EC50 [3]?
Its EC50 is 100 to 1000 nM.

And the EC50 [4]?
Its EC50 is 100 to 1000 nM.

Which EC50 [1] does the source give for CS(=O)(=O)n1ccc(CC(=O)Nc2sc3c(c2C#N)CN(Cc2cccc(F)c2)CC3)c1 [Example 36, N-(3-cyano-5-(3-fluorobenzyl)-4,5,6,7-tetrahydrothieno[3,2-c]pyridin-2-yl)-2-(1-(methylsulfonyl)-1H-pyrrol-3-yl)acetamide] here?
The EC50 was 100 to 1000 nM.

And the EC50 [2]?
Its EC50 is > 1000 nM.

What about the EC50 [3] of the same compound?
Its EC50 is 100 to 1000 nM.

And the EC50 [4]?
The EC50 was 100 to 1000 nM.

N#Cc1c(NC(=O)Cc2ccc(S(N)(=O)=O)cc2)sc2c1CCN(Cc1c(F)cccc1F)C2 [Example 116, N-(3-cyano-6-(2,6-difluorobenzyl)-4,5,6,7-tetrahydrothieno[2,3-c]pyridin-2-yl)-2-(4-sulfamoylphenyl)acetamide] was tested. Which EC50 [1] did it give?
The EC50 was < 100 nM.

And the EC50 [2]?
Its EC50 is 100 to 1000 nM.

And the EC50 [3]?
The EC50 was < 100 nM.

And the EC50 [4]?
Its EC50 is < 100 nM.

What does the source list for CCOc1cc(CC(=O)Nc2sc3c(c2C#N)CN(CC2CCCCC2)CC3)ccc1S(N)(=O)=O [Example 12, N-(3-cyano-5-(cyclohexylmethyl)-4,5,6,7-tetrahydrothieno[3,2-c]pyridin-2-yl)-2-(3-ethoxy-4-sulfamoylphenyl)acetamide]?
EC50 [1]: < 100 nM; EC50 [2]: < 100 nM; EC50 [3]: < 100 nM; EC50 [4]: < 100 nM

With COc1cc(CC(=O)N(C)c2sc3c(c2C#N)CN(CC2CCCCC2)CC3)ccc1S(N)(=O)=O [Example 48, N-(3-cyano-5-(cyclohexylmethyl)-4,5,6,7-tetrahydrothieno[3,2-c]pyridin-2-yl)-2-(3-methoxy-4-sulfamoylphenyl)-N-methylacetamide] as the compound, how does the EC50 [1] read?
Its EC50 is > 1000 nM.

And the EC50 [2]?
Its EC50 is > 1000 nM.

What about the EC50 [3] of the same compound?
Its EC50 is > 1000 nM.

And the EC50 [4]?
The EC50 was > 1000 nM.

With CC1(C)CS(=O)(=O)c2ccc(CC(=O)Nc3sc4c(c3C#N)CN(CC3CCCCC3)C(C)(C)C4)cc21 [Example 72, N-(3-cyano-5-(cyclohexylmethyl)-6,6-dimethyl-4,5,6,7-tetrahydrothieno[3,2-c]pyridin-2-yl)-2-(3,3-dimethyl-1,1-dioxido-2,3-dihydrobenzo[b]thiophen-5-yl)acetamide] as the compound, how does the EC50 [1] read?
Its EC50 is < 100 nM.

And the EC50 [2]?
The EC50 was < 100 nM.

What about the EC50 [3] of the same compound?
The EC50 was < 100 nM.

And the EC50 [4]?
Its EC50 is < 100 nM.

What does the source list for COC(=O)c1ccccc1CN1CCc2c(sc(NC(=O)Cc3ccc(S(N)(=O)=O)cc3)c2C#N)C1 [Example 91, Methyl-2-((3-cyano-2-(2-(4-sulfamoylphenyl)acetamido)-4,5-dihydrothieno[2,3-c]pyridin-6-(71-1)-yl)methyl)benzoate hydrochloride]?
EC50 [1]: > 1000 nM; EC50 [3]: 100 to 1000 nM; EC50 [4]: > 1000 nM
